The test system of test [1] is low molecular weight GTP binding proteins (SMG) in Met18b-2 cells. The test can be described thus: [3H]mevalonate labeling of low molecular weight GTP binding proteins (SMG) in Met18b-2 cells. Format: cell-based, Chinese hamster. From the text: To study farnesylation in intact cells we used Met18b-2 cells, a line of Chinese hamster ovary (CHO) cells that takes up [3H]mevalonate efficiently (see Faust, J., and Krieger, M. J. Biol. Chem. 262, 1966 (1987)) owing to the production of a mevalonate transport protein (see Kim, C. M., Goldstein, J. L., Brown, M. S. J. Biol. Chem. 267, 23113 (1992)). The [3H]mevalonate is converted by the cells into [3H]farnesyl pyrophosphate and [3H]geranylgeranyl pyrophosphate, which are then attached to proteins (Kim, C. M., Goldstein, J. L., Brown, M. S. J. Biol. Chem. 267, 23113 (1992)). In the assay, stock cultures of Met18b-2 cells were seeded at a density of 3-105 cells per 60 mm dish in 3 ml of medium A (Dulbecco's modified Eagle medium/Ham's F12 medium (1:1, v/v) containing 100 U/ml penicillin and 100 μg/ml streptomycin) supplemented with 5% (v/v) fetal calf serum (FCS). On day 3, each monolayer was refed with 1 ml medium A supplemented with 1% FCS (dialyzed against 0.15 M NaCl). At this point the cells were treated with 100 μM compactin (see Brown, M. S., Faust, J. R., Goldstein, J. L., Kaneko, I., and Endo, A. J. Biol. Chem. 253, 1121 (1978)) which blocks the synthesis of unlabeled mevalonate within the cells. Each compound was dissolved at 25 mM in DMSO/10 mM DTT immediately before use and 10 μl of this solution added directly. After 2 hr incubation at 37° C., each monolayer received 100 μCi [3H]mevalonate (60 Ci/mmol, American Radiolabeled Chemicals, Inc.) added in 100 μl of the medium A, and the incubation continued for 4 hr. The cells were harvested by rinsing three times with 3 ml of 50 mM Tris-HCl/0.15 M NaCl (pH 7.5). 300 μl of lysis buffer (0.5X Dulbecco's phosphate-buffered saline containing 1% Triton X-100, 5 μg/ml leupeptin, 5 μg/ml pepstatin, 0.5 mM phenylmethylsulfonyl fluoride, and 0.05 U/ml aprotinin) was added to each monolayer. After incubation on ice for 5 mon, the lysates were centrifuged 30 sec in a microfuge at 12,000 g. […] Protein concentrations were determined using the BCA protein assay reagent (Pierce) according to the manufacturer's instructions. […]

The subject of test [2] is farnesylated proteins F1, F2 and F3 in Met18b-2 cells. The test can be described thus: Inhibition of intracellular farnesylation in intact Met18b-2 cells, Triton-soluble proteins F1, F2, F3. Type of test: cell-based, Chinese hamster. From the text:
To study farnesylation in intact cells we used Met18b-2 cells, a line of Chinese hamster ovary (CHO) cells that takes up [3H]mevalonate efficiently (see Faust, J., and Krieger, M. J. Biol. Chem. 262, 1966 (1987)) owing to the production of a mevalonate transport protein (see Kim, C. M., Goldstein, J. L., Brown, M. S. J. Biol. Chem. 267, 23113 (1992)). The [3H]mevalonate is converted by the cells into [3H]farnesyl pyrophosphate and [3H]geranylgeranyl pyrophosphate, which are then attached to proteins (Kim, C. M., Goldstein, J. L., Brown, M. S. J. Biol. Chem. 267, 23113 (1992)). In the assay, stock cultures of Met18b-2 cells were seeded at a density of 3-105 cells per 60 mm dish in 3 ml of medium A (Dulbecco's modified Eagle medium/Ham's F12 medium (1:1, v/v) containing 100 U/ml penicillin and 100 μg/ml streptomycin) supplemented with 5% (v/v) fetal calf serum (FCS). On day 3, each monolayer was refed with 1 ml medium A supplemented with 1% FCS (dialyzed against 0.15 M NaCl). At this point the cells were treated with 100 μM compactin (see Brown, M. S., Faust, J. R., Goldstein, J. L., Kaneko, I., and Endo, A. J. Biol. Chem. 253, 1121 (1978)) which blocks the synthesis of unlabeled mevalonate within the cells. Each compound was dissolved at 25 mM in DMSO/10 mM DTT immediately before use and 10 μl of this solution added directly. After 2 hr incubation at 37° C., each monolayer received 100 μCi [3H]mevalonate (60 Ci/mmol, American Radiolabeled Chemicals, Inc.) added in 100 μl of the medium A, and the incubation continued for 4 hr. The cells were harvested by rinsing three times with 3 ml of 50 mM Tris-HCl/0.15 M NaCl (pH 7.5). 300 μl of lysis buffer (0.5X Dulbecco's phosphate-buffered saline containing 1% Triton X-100, 5 μg/ml leupeptin, 5 μg/ml pepstatin, 0.5 mM phenylmethylsulfonyl fluoride, and 0.05 U/ml aprotinin) was added to each monolayer. After incubation on ice for 5 mon, the lysates were centrifuged 30 sec in a microfuge at 12,000 g. The resulting supernatant was tranferred to a new tube, and each pellet was resuspended in 60 μl of lysis buffer. Protein concentrations were determined using the BCA protein assay reagent (Pierce) according to the manufacturer's instructions. Detergent-soluble (supernatant) and -insoluble (pellet) samples were mixed with 2X SDS sample buffer (see Laemmli, U. K. Nature 227, 680 (1970)) and heated at 95° C. for 5 min before electrophoresis. Each lane contained 90 μg protein, and was run on a 12.5% SDS-polyacrylamide gel. The gel was dried, treated with ENTENSIFY (NEN-DuPont), and exposed to Kodak XOMAT-AR film for 9 h at -80° C. to allow visualization of all prenylated proteins. Migration of [14C]methylated molecular weight standards (Amersham) were used as markers.
The results of this assay are shown in FIG. 3, using a final concentration of 250 μM for each inhibitor. […] As shown in the figure, none of the control peptides or control benzodiazepine-peptideomimetics altered the prenylation of proteins in intact cells.
Using the same cells and procedures followed above for Example 125, we measured the dose dependence upon the inhibition of farnesylation in intact cells. […] Compound 37B inhibited the famesylation of F1-3 detectably at 10 μM, and almost completely at 25 μM.
In this manner, it is possible to obtain data regarding the comparative potency of these inhibitors upon the level of intracellular farnesylation. We have chosen to report the EC90% values for these inhibitors as the concentration required for a reduction in the Triton- soluble labelling (denoted F-1, F-2, and F-3) to 90% of control cells (untreated).

Test [3] has as its system Hela cells. The test can be described thus: Growth inhibition of human tumor line Hela. Type of test: cell-based. As to conditions: cervix, not ras transformed, read-out: % growth inhib. The procedure: To examine the effects of farnesyltransferase inhibition on cell growth, three cell lines (ras-transformed rat-1, src-transformed rat-1, and parental rat-1 cells) were seeded (see FIG. 7) at low density and allowed to grow for 10 days in the absence or presence of increasing concentrations of BZA-5B (compound 37). See Example 128 for description of cells. On day 0, cells were plated in monolayer culture at 2×10^3 cells per well (24-well plates) in 1 ml DMEM supplemented with 10% fetal calf serum, 100 U/ml penicillin, 100 μg/ml streptomycin, 0.5 mM DTT, 0.025% DMSO, and the indicated concentration of BZA-5B (compound 37). On days 3 and 7, cells were washed and refed with the same medium. At the time indicated in FIG. 7, cells were harvested by trypsinization and counted in a Coulter counter. Panels A, C, E show the growth rate of each cell line in the absence of inhibitor. Panels B, D, F show the inhibition of growth as a function of concentration of BZA-5B at each time point. […]
To examine the effects of farnesyltransferase inhibition on the growth of human tumor cell lines, several such lines were treated with 25 μM BZA-5B (compound 37B) using a procedure similar to that described in Example 129 above. Cells were refed with fresh media at days 3 and 6 containing the inhibitor, and were harvested and counted as described above. […]

Regarding `COC(=O)[C@H](CCSC)NC(=O)CN1C(=O)C(N(C)C(=O)[C@@H](N)CS)N=C(c2ccccc2)c2ccccc21` (single isomer, unassigned) [37B], the “incorporation of radioactivity into SMG proteins” value in test [1] (increasing concentration, FIG. 5, lanes 2-4) was “did not detectably inhibit the incorporation of radioactivity into the abundant SMG proteins”. Also, the IC (almost complete) in test [2] (Cricetulus griseus, read-out: concentration of almost complete inhibition of farnesylation of F1-3) was determined as 25 µM. Also, the minimal effective concentration in test [2] (Cricetulus griseus, read-out: concentration of detectable inhibition of farnesylation of F1-3) was 10 µM. The “relative potency in intact cells” value in test [2] (dose dependence, FIG. 4, compared with 27B and 37B) is “much more potent than the parent, compound 27B”. In addition, the inhibition at 25 µM in test [3] amounted to 0%.
Turning to `CSCC[C@H](NC(=O)CN1C(=O)C(N(C)C(=O)[C@@H](N)CS)N=C(c2ccccc2)c2ccccc21)C(=O)O` (single isomer, unassigned) [27B], the “effect on low molecular weight GTP binding proteins (SMG)” value in test [1] (250 μM, FIG. 3) is given as “little effect on the low molecular weight GTP binding proteins”. The “labeling of Triton-soluble farnesylated proteins (F1 to F3)” value in test [2] (250 μM, FIG. 3) is “markedly decreased the labeling of all three Triton-soluble farnesylated proteins (F1 to F3)”.

For the origin of these results see patent publication US5843941A, “Ras farnesyl transferase inhibitors” (Genentech, Inc., priority 1994, dated 1998).
